PMC9952374, “De Novo Design of Imidazopyridine-Tethered Pyrazolines That Target Phosphorylation of STAT3 in Human Breast Cancer Cells” (Bioengineering, 2023)

What was measured:
MCF-7 cells = assay: Alamar Blue cell viability assay, MCF-7; format: cell-based, human; details: MCF-7 cell viability
Text: (§1) The goal herein was to assess the ability of imidazopyridine-tethered pyrazolines to inhibit cell viability in mammary carcinoma cells (using the Alamar Blue assay), since pyridine-fused pyrazoles were previously shown to inhibit cell viability in various breast cancer cells. […] The low chemical stability of thio-urea-based compounds may account for the inactivity of most thiourea-conjugated pyrazolines (excluding 4g) against TNBC cells.
(§2) MCF-7 cells were procured from Procell Life Science and Technology Co. LTD, Wuhan, China. Human breast cancer T47D, BT474, and SK-BR-3 cells were obtained from American Type Culture Collection (Washington, DC, NW, USA). Cells (2000) were cultured in MEM or Leibovitz’s L-15 medium enriched with 2% FBS and maintained in a humidified atmosphere of 5% CO2 at 37 °C. A stock solution of DMSO-dissolved compounds was prepared, and this solution was diluted with culture medium as required. MCF-7 Cells (4 × 10^3) were cultured in 96-well plates for 12 h and then treated for 72 h with compounds at concentrations of […]. Using Alamar Blue, the compounds were evaluated for their inhibitory effects
Figure 2 Inhibitory effect of compounds 3f (A), 3e (B), 4g (C), and 3g (D) on the viability of MCF-7 cells. MCF-7 cells were treated with various concentrations of 2-pyrazolines for 72 h and the viability of cells was analyzed by Alamar Blue assays. The results are presented as mean ± S.E.M. of triplicate determinations.

SK-BR-3 cells = assay: Alamar Blue cell viability assay, SK-BR-3; format: cell-based, human; details: SK-BR-3 cell viability
Text: as §1, §2

BT-474 cells = assay: Alamar Blue cell viability assay, BT-474; format: cell-based, human; details: BT-474 cell viability, Alamar Blue
Text: as §1, §2

MCF-10A cells = assay: Alamar Blue cell viability assay, normal MCF-10A; format: cell-based; details: normal MCF-10A cell viability
T47D cells = assay: Alamar Blue cell viability assay, T47D; format: cell-based, human; details: T47D cell viability, Alamar Blue
Text: as §1, §2

TNBC cells = assay: Effect against TNBC cells; format: cell-based; details: in words
Text: as §1

Row | Compound | IC50 (MCF-7 cells; Homo sapiens, MCF7, 72 h) [µM] | IC50 (SK-BR-3 cells; Homo sapiens) [µM] | IC50 (BT-474 cells; Homo sapiens) [µM] | IC50 (MCF-10A cells; Homo sapiens) [µM] | melting point [°C] | IC50 (T47D cells; Homo sapiens) [µM] | IC50 (MCF-7 cells; 72 h) [µM] | IC50 (SK-BR-3 cells) [µM] | IC50 (BT-474 cells) [µM] | IC50 (MCF-10A cells) [µM] | IC50 (T47D cells) [µM] | effect against TNBC cells (TNBC cells)
1 | Cc1ccc2nc(C)c(C3=NN(C(=O)CN4CCN(c5ccccc5F)CC4)C(c4cccc([N+](=O)[O-])c4)C3)n2c1 (stereo not shown) [Compound 3i, 1-(3-(2,6-Dimethylimidazo[1,2-a]pyridin-3-yl)-5-(3-nitrophenyl)-4,5-dihydro-1H-pyrazol-1-yl)-2-(4-(2-fluorophenyl)piperazin-1-yl)ethanone] | 63.7 ± 1.8 | > 100 | > 100 | > 100 | 160 to 162 | > 100 | – | – | – | – | – | –
2 | Cc1ccc(NC(=S)N2N=C(c3c(C)nc4ccc(C)cn34)CC2c2cccc([N+](=O)[O-])c2)cc1 (stereo not shown) [Compound 4f, 3-(2,6-Dimethylimidazo[1,2-a]pyridin-3-yl)-5-(3-nitrophenyl)-N-(p-tolyl)-4,5-dihydro-1H-pyrazoline-1-carbothioamide] | – | – | – | – | – | – | 56.9 ± 1.39 | > 100 | > 100 | > 100 | > 100 | –
3 | Cc1ccc2nc(C)c(C3=NN(C(=O)CN4CCC(=O)CC4)C(c4cccc([N+](=O)[O-])c4)C3)n2c1 (stereo not shown) [Compound 3a, 1-(2-(3-(2,6-Dimethylimidazo[1,2-a]pyridin-3-yl)-5-(3-nitrophenyl)-4,5-dihydro-1H-pyrazol-1-yl)-2-oxoethyl)piperidin-4-one] | 22.8 ± 1.36 | > 100 | 4.11 ± 0.41 | > 100 | 170 to 172 | 23.3 ± 1.28 | – | – | – | – | – | –
4 | Cc1ccc2nc(C)c(C3=NN(C(=O)CN4CCN(C(=O)OC(C)(C)C)CC4)C(c4cccc([N+](=O)[O-])c4)C3)n2c1 (stereo not shown) [Compound 3b, Tert-butyl-4-(2-(3-(2,6-dimethylimidazo[1,2-a]pyridin-3-yl)-5-(3-nitrophenyl)-4,5-dihydro-1H-pyrazol-1-yl)-2-oxoethyl)piperazine-1-carboxylate] | 22.3 ± 1.35 | 28.3 ± 1.34 | 21.3 ± 1.32 | > 100 | 166 to 168 | 15.2 ± 1.13 | – | – | – | – | – | –
5 | Cc1ccc2nc(C)c(C3=NN(C(=O)CN4CCN(c5ccc(F)c(F)c5)CC4)C(c4cccc([N+](=O)[O-])c4)C3)n2c1 (stereo not shown) [Compound 3h, 2-(4-(3,4-Difluorophenyl)piperazin-1-yl)-1-(3-(2,6-dimethylimidazo[1,2-a]pyridin-3-yl)-5-(3-nitrophenyl)-4,5-dihydro-1H-pyrazol-1-yl)ethanone] | 19.6 ± 1.29 | 38.8 ± 1.42 | 3.06 ± 0.32 | 6.27 ± 0.26 | 192 to 194 | 12.5 ± 1.01 | – | – | – | – | – | significant effect
6 | Cc1ccc2nc(C)c(C3=NN(C(=S)NC4CCCCC4)C(c4cccc([N+](=O)[O-])c4)C3)n2c1 (stereo not shown) [Compound 4c, N-Cyclohexyl-3-(2,6-dimethylimidazo[1,2-a]pyridin-3-yl)-5-(3-nitrophenyl)-4,5-dihydro-1H-pyrazoline-1-carbothioamide] | – | – | – | – | – | – | 46.1 ± 1.66 | > 100 | 52.8 ± 1.54 | > 100 | > 100 | –
7 | CC(=O)N1N=C(c2c(C)nc3ccc(C)cn23)CC1c1cccc([N+](=O)[O-])c1 (stereo not shown) [Compound 2, 1-(3-(2,6-Dimethylimidazo[1,2-a]pyridin-3-yl)-5-(3-nitrophenyl)-4,5-dihydro-1H-pyrazol-1-yl)ethanone] | > 100 | > 100 | 97.8 ± 1.76 | > 100 | 166 to 168 | > 100 | – | – | – | – | – | –
8 | Cc1ccc2nc(C)c(C3=NN(C(=O)CN4CCN(c5ccc(Cl)cc5)CC4)C(c4cccc([N+](=O)[O-])c4)C3)n2c1 (stereo not shown) [Compound 3e, 2-(4-(4-Chlorophenyl)piperazin-1-yl)-1-(3-(2,6-dimethylimidazo[1,2-a]pyridin-3-yl)-5-(3-nitrophenyl)-4,5-dihydro-1H-pyrazol-1-yl)ethanone] | 13.2 ± 1.12 | 39.1 ± 1.46 | 17.6 ± 0.87 | 38.3 ± 1.44 | 180 to 182 | 29.9 ± 1.05 | – | – | – | – | – | –
9 | CC(=O)N1CCN(CC(=O)N2N=C(c3c(C)nc4ccc(C)cn34)CC2c2cccc([N+](=O)[O-])c2)CC1 (stereo not shown) [Compound 3d, 2-(4-Acetylpiperazin-1-yl)-1-(3-(2,6-dimethylimidazo[1,2-a]pyridin-3-yl)-5-(3-nitrophenyl)-4,5-dihydro-1H-pyrazol-1-yl)ethanone] | 21 ± 1.32 | 32.1 ± 1.46 | 8.04 ± 0.47 | > 100 | 208 to 210 | > 100 | – | – | – | – | – | –
10 | Cc1ccc2nc(C)c(C3=NN(C(=O)CN4CCNCC4)C(c4cccc([N+](=O)[O-])c4)C3)n2c1 (stereo not shown) [Compound 3c, 1-(3-(2,6-Dimethylimidazo[1,2-a]pyridin-3-yl)-5-(3-nitrophenyl)-4,5-dihydro-1H-pyrazol-1-yl)-2-(piperazin-1-yl)ethanone] | 29.3 ± 1.47 | 95.2 ± 1.79 | 26.8 ± 1.37 | > 100 | 176 to 178 | 40 ± 1.49 | – | – | – | – | – | –
11 | Cc1ccc2nc(C)c(C3=NN(C(=S)Nc4ccccc4)C(c4cccc([N+](=O)[O-])c4)C3)n2c1 (stereo not shown) [Compound 4a, 3-(2,6-Dimethylimidazo[1,2-a]pyridin-3-yl)-5-(3-nitrophenyl)-N-phenyl-4,5-dihydro-1H-pyrazoline-1-carbothioamide] | – | – | – | – | – | – | 81.4 ± 1.91 | > 100 | > 100 | > 100 | > 100 | –
12 | Cc1ccc2nc(C)c(C3=NN(C(=S)Nc4cccc(Cl)c4)C(c4cccc([N+](=O)[O-])c4)C3)n2c1 (stereo not shown) [Compound 4e, N-(3-Chlorophenyl)-3-(2,6-dimethylimidazo[1,2-a]pyridin-3-yl)-5-(3-nitrophenyl)-4,5-dihydro-1H-pyrazoline-1-carbothioamide] | – | – | – | – | – | – | > 100 | > 100 | > 100 | > 100 | > 100 | –
13 | N-Butyl-3-(2,6-dimethylimidazo[1,2-a]pyridin-3-yl)-5-(3-nitrophenyl)-4,5-dihydro-1H-pyrazoline-1-carbothioamide [Compound 4h] | – | – | – | – | – | – | > 100 | > 100 | > 100 | 90.6 ± 1.98 | 54.4 ± 1.68 | –
14 | Cc1ccc2nc(C)c(C3=NN(C(=O)CN4CCN(c5ccc(Cl)cc5F)CC4)C(c4cccc([N+](=O)[O-])c4)C3)n2c1 (stereo not shown) [Compound 3g, 2-(4-(4-Chloro-2-fluorophenyl)piperazin-1-yl)-1-(3-(2,6-dimethylimidazo[1,2-a]pyridin-3-yl)-5-(3-nitrophenyl)-4,5-dihydro-1H-pyrazol-1-yl)ethanone] | 19.4 ± 1.29 | 100 ± 1.98 | 63.2 ± 1.75 | 8.69 ± 0.69 | 196 to 198 | 86.5 ± 1.95 | – | – | – | – | – | –
15 | Cc1ccc2nc(C)c(C3=NN(C(=S)Nc4cc(C(F)(F)F)cc(C(F)(F)F)c4)[C@@H](c4cccc([N+](=O)[O-])c4)C3)n2c1 [Compound 4g, N-(3,5-Bis(trifluoromethyl)phenyl)-3-(2,6-dimethylimidazo[1,2-a]pyridin-3-yl)-5-(3-nitrophenyl)-4,5-dihydro-1H-pyrazoline-1-carbothioamide] | 10.9 ± 1.01 | > 100 | > 100 | > 100 | 230 to 232 | > 100 | – | – | – | – | – | –
16 | N-(4-Chlorophenyl)-3-(2,6-dimethylimidazo[1,2-a]pyridin-3-yl)-5-(3-nitrophenyl)-4,5-dihydro-1H-pyrazoline-1-carbothioamide [Compound 4d] | – | – | – | – | – | – | > 100 | > 100 | > 100 | > 100 | > 100 | –
